Entries after “also recorded” stand apart in the source; their conditions may differ. Read-outs that look alike come from different tables or passages of the source.
Experiments:
[1] = molecular target: T1, S. aureus staphopain B (SspB) (Staphylococcus aureus, UniProt P0C1S6); experiment: Proteolytic degradation of LL-37 by staphopain B, SDS-PAGE and MS; type: in vitro ADME; details: LL-37 3 μg with staphopain B 0.6 μg in 30 μl, 3 h, 37 °C; SDS-PAGE (10-20% Tricine gel), MALDI-MS
T1 construct: purchased Sigma-Aldrich
T1 sequence (P0C1S6 220-393): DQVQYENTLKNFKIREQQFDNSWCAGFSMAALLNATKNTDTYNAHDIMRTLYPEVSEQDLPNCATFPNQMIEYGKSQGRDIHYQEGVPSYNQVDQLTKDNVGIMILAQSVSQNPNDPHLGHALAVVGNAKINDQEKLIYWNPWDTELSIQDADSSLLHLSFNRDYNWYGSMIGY
Procedure: (§1) Proteolytic degradation of LL-37 and SDS-PAGE analysis (See Supplementary Methods S1).
(§2) Matrix-assisted laser desorption ionization mass spectrometry (MALDI-MS) was used for the identification of trypsin generated peptides of LL-37. A MALDI matrix solution consisting of 5 mg/ml hydroxycinnamic acid in 50% acetonitrile, 0.1% (v/v) phosphoric acid[67] was mixed with the staphopain-generated peptides. The matrix solution contained two peptide standards [des-arg-bradykinin (m/z 904.468) and ACTH 18–39 (m/z 2465.199)] that were used for internal mass calibration in every analyte/matrix position. […]
LL-37 (3 µg), was incubated with S. aureus staphopain B (0.6 µg) (Sigma-Aldrich, St. Louis, MO, USA) in a total volume of 30 µl for 3 h at 37 ° C. […] The materials were subsequently analysed on Novex®10-20% Tricine Gel (Life technologies, Carlsbad, CA, USA) under reducing conditions. […]
The NF-κB/AP-1 reporter cell line THP1-XBlue™ -CD14, derived from the human monocytic THP-1 cell line, (InvivoGen, San Diego, CA, USA) was cultured according to the manufacturer’s protocol. […] NF-κB/AP-1 activation was assessed by using QUANTI-Blue™ assay according to the instructions supplied by the manufacturer. Secreted embryonic alkaline phosphatase (SEAP) was produced by the cell line upon stimulation and assessed by a SEAP detection reagent in cell supernatants. Absorbance at 600 nm was then detected. […]

[2] = system: planktonic S. aureus (isolates from skin of patients with AD and ATCC 29213); type: cell-based, Staphylococcus aureus; details: summary over the tested S. aureus strains
Procedure: Measurement of the bacterial susceptibility was determined by using a modified version of the CBD method (MBEC^TM Biofilm Inoculator, Innovotech, Edmonton, Canada)[59] following the manufacturers protocol. Briefly, to establish biofilms in vitro using the CBD, 150 μl bacterial solution of 10^5 CFU/ml in 1.5% tryptic soy broth (TSB) was supplemented with 0.3% glucose and aliquoted into each well of the MBEC plate and thereafter incubated for 24 h in a rotary incubator at 37 °C and 180 rpm. This allowed the biofilm to form on the pegs. The pegs with established biofilms were then washed once in sterile PBS (200 μl/well). […]
The MIC values measured using the CBD are equivalent to MIC values obtained using the National Committee for Clinical Laboratory Standards (NCCLS) procedure. The MIC value, representing the concentration required to inhibit growth of planktonic bacteria, was determined from bacteria that were shed from the pegs when the lid of the CBD was placed in different concentrations of LL-37. […] MBECs were determined by analyzing the bacterial viability in the biofilm after 24 h of incubation at 37 °C either by reading the turbidity at 600 nm in a 96-well plate reader (Victor[3] 1420 multilabel counter, Perkin-Elmer) or by obtaining bacterial plate counts. The recorded MIC and MBEC values represent a typical result of three independent experiments.

[3] = molecular target: T2, S. aureus staphopain A (ScpA) (Staphylococcus aureus, UniProt P81297); type: in vitro ADME; details: gel-electrophoresis (10-20% Tricine gel); MS detected cleavage of minor fragments
T2 construct: purchased Preparatis (Krakow, Poland)
T2 sequence (P81297 215-388): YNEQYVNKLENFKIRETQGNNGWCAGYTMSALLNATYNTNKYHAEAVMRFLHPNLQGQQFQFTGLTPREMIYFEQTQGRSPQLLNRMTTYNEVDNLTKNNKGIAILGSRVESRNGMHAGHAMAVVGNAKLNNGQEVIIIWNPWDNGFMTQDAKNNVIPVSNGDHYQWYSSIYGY
Procedure: as §1
as §2, with “position. MALDI-MS and MS/MS analyses of the samples were performed on a 4700 Proteomics Analyzer MALDI-TOF/TOF™ mass spectrometer (Applied Biosystems, Framingham, MA). Database searching was carried out using Mascot (Matrix Science) with Swissprot as the database and with a peptide mass tolerance of 50 ppm and a fragment mass tolerance of 0.2 Da.” for “position.”
labeled LL-37) and green (S. aureus cells) seen separately, and yellow representing co-existence of bacterial cells and the TAMRA-labeled LL-37 peptide. Binding of TAMRA labeled LL-37 to the S. aureus cells were present throughout the biofilm. […]
Supplementary Fig. S5. […] LL-37 was incubated with and without S. aureus ScpA and analyzed using SDS-PAGE (Novex®10-20% Tricine Gel) (a), and by mass spectrometry (b). […]

[4] = published peptide, cited from earlier work
Text: Table 2 A selection of published peptide sequences derived from LL-37 with immune-modulating actions, and examples of their biological effects. | column: Biological activity

staphopain B (SspB) = experiment: S. aureus staphopain B (0.6 µg) (Sigma-Aldrich) in a total volume of 30 µl; details: 37 °C, up to 3 h

In the case of `CC[C@H](C)[C@H](NC(=O)[C@H](CCCCN)NC(=O)[C@H](CCC(=O)O)NC(=O)[C@H](CCCCN)NC(=O)[C@H](CO)NC(=O)[C@H](CCCCN)NC(=O)[C@H](CCCNC(=N)N)NC(=O)[C@H](Cc1ccccc1)NC(=O)[C@H](Cc1ccccc1)NC(=O)[C@H](CC(=O)O)NC(=O)CNC(=O)[C@H](CC(C)C)NC(=O)[C@@H](N)CC(C)C)C(=O)NCC(=O)N[C@@H](CCCCN)C(=O)N[C@@H](CCC(=O)O)C(=O)N[C@@H](Cc1ccccc1)C(=O)N[C@@H](CCCCN)C(=O)N[C@@H](CCCNC(=N)N)C(=O)N[C@H](C(=O)N[C@H](C(=O)N[C@@H](CCC(N)=O)C(=O)N[C@@H](CCCNC(=N)N)C(=O)N[C@H](C(=O)N[C@@H](CCCCN)C(=O)N[C@@H](CC(=O)O)C(=O)N[C@@H](Cc1ccccc1)C(=O)N[C@@H](CC(C)C)C(=O)N[C@@H](CCCNC(=N)N)C(=O)N[C@@H](CC(N)=O)C(=O)N[C@@H](CC(C)C)C(=O)N[C@H](C(=O)N1CCC[C@H]1C(=O)N[C@@H](CCCNC(=N)N)C(=O)N[C@H](C(=O)N[C@@H](CCC(=O)O)C(=O)N[C@@H](CO)C(=O)O)[C@@H](C)O)C(C)C)[C@@H](C)CC)C(C)C)[C@@H](C)CC` [LL-37], the “degradation by SspB” value [1] is reported as “degraded into fragments of lower molecular weight”, the “MIC values obtained for planktonic cells” value [2] is reported as 10 to 20 µM and the “degradation by ScpA” value [3] is reported as “did not reveal any obvious major cleavage”.

For “GDFFRKSK EKIGKEFKRI VQRIKDFLRN LVPRTES [F106, published fragment (F) derived from LL-37]”, the Biological activity ([4]; ref [29]) is listed as “AM, IM^2”.

In the case of “GKEFKRI VQRIKDFLRN LVPR (GKEFKRIVQRIKDFLRNLVPR)”, the Biological activity ([4]; ref [24]) is given as “AM, IM^1c,2”.

In the case of IGKEFKRI VQRIKDFLRN L [IG-19], the Biological activity ([4]; ref [27], [28]) is given as “IM^1b,2,5”.

For IGKEFKRI VQRIKDFLRN LVPRTES [IG-25], the Biological activity ([4]; ref [27]) is given as “IM^1b,3”.

For “KSK EKIGKEFKRI VQRIKDFLRN LVPRTES [KS-30]”, the Biological activity ([4]; ref [23], [25], [26]) is given as “AM, IM^3,4”.

For LLGDFFRKSKEKIGKEFKRIV, the Biological activity ([4]; ref [24]) is listed as “AM, IM^2”.

In the case of LLGDFFRKSKEKIGKEFKRIVQRIK [LL-25], the Biological activity ([4]; ref [27]) is listed as “IM^1b”.

In the case of “LLGDFFRKSKEKIGKEFKRIVQRIKDFLRNL [LL-31]”, the Biological activity ([4]; ref [27]) is given as “IM^1b,3”.

With LLGDFFRKSKEKIGKEFKRIVQRIKDFLRNLVPRTES the cleaved bond (staphopain B (SspB); S. aureus) was “E11-K12; also recorded: E16-F17; also recorded: D26-F27; also recorded: L28-R29” and the fragment found (staphopain B (SspB); Staphylococcus aureus) was “LLG16, minor”.

In the case of RKSK EKIGKEFKRI VQRIKDFLRN L [RK-25], the Biological activity ([4]; ref [27]) is given as “IM^1b,3”.

For “RKSK EKIGKEFKRI VQRIKDFLRN LVPRTES [F110, published fragment (F) derived from LL-37]”, the Biological activity ([4]; ref [29]) is given as “AM, IM^1c,2”.

In the case of “RKSK EKIGKEFKRI VQRIKDFLRN LVPRTES [RK-31]”, the Biological activity ([4]; ref [23], [25]) is listed as “AM, IM^3”.
